Results published in ChEMBL document CHEMBL5375994, “Advances in Development of Selective Antitumor Inhibitors That Target PARP-1” (J Med Chem, 2023).

Key:
[1] = biological target: Poly [ADP-ribose] polymerase 2 (Homo sapiens, UniProt Q9UGN5); experiment: Inhibition of PARP-2 (unknown origin)
[2] = biological target: Poly [ADP-ribose] polymerase 1 (Homo sapiens, UniProt P09874); experiment: Inhibition of human recombinant PARP-1
Sequence of Poly [ADP-ribose] polymerase 1 (P09874 whole entry): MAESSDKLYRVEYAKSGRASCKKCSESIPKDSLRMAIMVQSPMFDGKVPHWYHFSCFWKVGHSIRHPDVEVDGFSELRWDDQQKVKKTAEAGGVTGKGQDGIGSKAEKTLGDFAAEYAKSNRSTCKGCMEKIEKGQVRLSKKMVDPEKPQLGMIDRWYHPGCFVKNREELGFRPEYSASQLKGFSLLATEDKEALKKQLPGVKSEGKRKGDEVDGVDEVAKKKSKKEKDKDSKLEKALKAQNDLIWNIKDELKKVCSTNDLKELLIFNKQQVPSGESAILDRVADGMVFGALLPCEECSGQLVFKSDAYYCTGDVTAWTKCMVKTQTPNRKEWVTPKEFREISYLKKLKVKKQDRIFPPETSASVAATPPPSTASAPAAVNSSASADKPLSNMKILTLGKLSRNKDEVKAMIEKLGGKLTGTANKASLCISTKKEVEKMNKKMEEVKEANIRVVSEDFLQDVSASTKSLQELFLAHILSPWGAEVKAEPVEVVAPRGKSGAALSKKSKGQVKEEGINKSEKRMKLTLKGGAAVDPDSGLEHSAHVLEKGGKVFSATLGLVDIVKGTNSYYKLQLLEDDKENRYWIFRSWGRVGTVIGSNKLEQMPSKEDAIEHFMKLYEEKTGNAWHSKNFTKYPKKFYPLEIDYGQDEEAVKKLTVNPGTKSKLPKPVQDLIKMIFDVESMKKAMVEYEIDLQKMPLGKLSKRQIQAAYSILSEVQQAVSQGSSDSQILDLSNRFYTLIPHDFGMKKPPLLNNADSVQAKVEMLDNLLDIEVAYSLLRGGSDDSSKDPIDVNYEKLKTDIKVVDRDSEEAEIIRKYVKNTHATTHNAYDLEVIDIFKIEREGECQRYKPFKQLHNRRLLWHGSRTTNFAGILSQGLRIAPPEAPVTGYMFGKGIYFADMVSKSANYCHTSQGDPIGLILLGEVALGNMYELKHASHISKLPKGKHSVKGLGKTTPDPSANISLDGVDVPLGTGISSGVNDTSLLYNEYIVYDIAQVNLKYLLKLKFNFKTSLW

Sequence of Poly [ADP-ribose] polymerase 2 (Q9UGN5 whole entry): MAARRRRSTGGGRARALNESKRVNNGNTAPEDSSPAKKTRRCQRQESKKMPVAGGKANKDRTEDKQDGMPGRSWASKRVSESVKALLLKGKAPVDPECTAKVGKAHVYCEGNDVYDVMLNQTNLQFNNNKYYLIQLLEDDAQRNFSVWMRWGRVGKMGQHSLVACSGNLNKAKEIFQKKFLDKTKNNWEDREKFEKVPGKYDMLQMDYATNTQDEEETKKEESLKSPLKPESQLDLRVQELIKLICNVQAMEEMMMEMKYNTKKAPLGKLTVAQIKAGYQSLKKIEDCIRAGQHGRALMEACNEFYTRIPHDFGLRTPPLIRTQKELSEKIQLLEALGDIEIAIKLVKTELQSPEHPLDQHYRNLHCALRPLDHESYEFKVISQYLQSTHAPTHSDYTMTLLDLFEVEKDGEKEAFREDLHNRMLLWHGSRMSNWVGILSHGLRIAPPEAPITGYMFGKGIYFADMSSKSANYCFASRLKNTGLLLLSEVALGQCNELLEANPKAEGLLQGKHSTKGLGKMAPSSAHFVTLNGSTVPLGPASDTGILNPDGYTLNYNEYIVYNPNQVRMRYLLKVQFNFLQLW

Row | SMILES | IC50 [1] [nM] | IC50 [2] [nM]
1 | O=c1[nH]c(CCCN2CCC(c3ccc(F)cc3)CC2)nc2c(Cl)cccc12 | 500 | 13
2 | O=c1[nH]c(CCCN2CCC(c3ccccc3)CC2)nc2cccc(Cl)c12 | 630 | 68
3 | O=c1[nH]c(CCCN2CCC(c3ccccc3)CC2)nc2ccccc12 | 608 | 21
4 | O=c1[nH]c(CCCN2CCC(c3ccccc3)CC2)nc2c(Cl)cccc12 | 610 | 23

These reach a lower IC50 [1]. Values come first.

Row | IC50 [1] [nM] | IC50 [2] [nM] | SMILES
5 | 300 | 11 | O=c1[nH]c(CCCN2CCN(c3ccccc3)CC2)nc2cccc(Cl)c12
6 | 167 | 16 | Cc1cccc2c(=O)[nH]c(CCCN3CCC(c4ccc(F)cc4)CC3)nc12
7 | 87 | 3 | N#Cc1ccc(C2CCN(CCCc3nc4c(Cl)cccc4c(=O)[nH]3)CC2)cc1
